Among the data in US9926315B2, “Triazolopyridine compounds and methods for the treatment of cystic fibrosis” (Flatley Discovery Lab, LLC, priority 2014, dated 2018) are EC50 and Emax values, retold here.

The target of the test is T1, human ΔF508-CFTR (Homo sapiens, UniProt P13569, DEL508-508).
T1 construct: expressed in transfected cells
Kind of test: CFTR-YFP High Throughput Assay (HTS YFP flux assay, corrector / potentiator protocols). Type of test: cell-based. Conditions: FRT cells stably expressing human ΔF508-CFTR and YFP-H148Q/I152L; for Emax: normalized to positive control, read-out: Emax (% Efficacy, EMax normalized to the positive control). The procedure:
Assays for Detecting and Measuring the Effect of Compounds on dF508-CFTR Channels CFRT-YFP High Throughput Assay: Corrector Assay:
The following protocol is designed to selectively screen small molecule compounds for F508del CFTR corrector activities in the HTS YFP flux assay. In this protocol, the cells are incubated with testing compounds for 24 hours, washed with PBS, stimulated with forskolin and a standard potentiator, and read on a 384-well HTS plate reader, such as the Hamamatsu FDDD-6000.
YFP fluorescence intensity is acquired at high speed before and after iodide buffer is injected to the assay cells. Iodide enters the cells via active CFTR channels in the plasma membrane, and quenches the YFP fluorescence. The rate of fluorescence quenching is proportionally related to the total CFTR activities in the cell membrane. dF508-CFTR corrector accelerates YFP quenching by increasing the number of CFTR molecules in the testing cell plasma membrane.
This method was initially developed for bench top plate readers (Galietta, 2001), and was adapted to the HTS format (Sui, 2010).
Fisher Rat Thyroid (FRT) cells stably expressing both human ΔF508-CFTR and a halide-sensitive yellow fluorescent protein (YFP-H148Q/I152L 25, 22) (Galietta, 2001) were cultured on plastic surface in Coon's modified Ham's F12 medium supplemented with FBS 10%, L-glutamine 2 mM, penicillin 100 U/mL, and streptomycin 100 μg/mL. G418 (0.75-1.0 mg/mL) and zeocin (3.2 μg/mL) were used for selection of FRT cells expressing ΔF508-CFTR and YFP. For primary screening, FRT cells were plated into 384-well black wall, transparent bottom microtiter plates (Costar; Corning Inc.) at a cell density of 20, 000-40, 000 per well. Test compound was applied to the cells at varying concentrations ranging from 2 nM-[…] in either a 2-fold or 3-fold dilution series. Cells were incubated in a cell culture incubator at 37° C. with 5% CO2 for 24-26 h. Assay plates were washed with DPBS media (Thermo, cat#SH30028.02) to remove unbound cells and compound. Stimulation media (25 μL) containing 20 μM Forskolin & 30 μM P3 [6-(Ethyl-phenyl-sulfonyl)-4-oxo-1, 4-dihydro-quinoline-3-carboxylic acid 2-methoxy-benzylamide] in Hams F-12 coon's modified media was added to the plate wells and incubated at room temperature for 60-120 min. 25 μL of HEPES-PBS-I buffer (10 mM HEPES, 1 mM MgCl2, 3 mM KCl, 1 mM CaCl2, 150 mM NaI) was then added and fluorescence quench curves (Excitation 500 nm/Emission 540 nm; exposure 136 ms) were immediately recorded on an FDSS-6000 plate reader (Hamamatsu). Quench rates were derived from least squares fitting of the data (Sui, 2010).
The following protocol is designed to selectively screen small molecule compounds for F508del CFTR potentiator activities in the HTS YFP flux assay. In this protocol, the cells are incubated at 27° C. for 24 hours with homogeneously boosted dF508-CFTR expression in the cell membrane by the low temperature, washed with PBS, stimulated with forskolin, and read on a 384-well HTS plate reader, such as the Hamamatsu […].
YFP fluorescence intensity is acquired at high speed before and after iodide buffer is injected to the assay cells. Iodide enters the cells via active CFTR channels in the plasma membrane, and quenches the YFP fluorescence. The rate of fluorescence quenching is proportionally related to the total CFTR activities in the cell membrane. dF508del-CFTR potentiators accelerate YFP quenching by increasing CFTR activities in the testing cell plasma membrane.
Fisher Rat Thyroid (FRT) cells stably expressing both human ΔF508-CFTR and a halide-sensitive yellow fluorescent protein (YFP-H148Q/I152L 25, 22) (Galietta, 2001) were cultured on plastic surface in Coon's modified Ham's F12 medium supplemented with FBS 10%, L-glutamine 2 mM, penicillin 100 U/mL, and streptomycin 100 μg/mL. G418 (0.75-1.0 mg/mL) and zeocin (3.2 μg/mL) were used for selection of FRT cells expressing ΔF508-CFTR and YFP. […]

T1 sequence (P13569 with tags, fused parts or gaps DEL508-508): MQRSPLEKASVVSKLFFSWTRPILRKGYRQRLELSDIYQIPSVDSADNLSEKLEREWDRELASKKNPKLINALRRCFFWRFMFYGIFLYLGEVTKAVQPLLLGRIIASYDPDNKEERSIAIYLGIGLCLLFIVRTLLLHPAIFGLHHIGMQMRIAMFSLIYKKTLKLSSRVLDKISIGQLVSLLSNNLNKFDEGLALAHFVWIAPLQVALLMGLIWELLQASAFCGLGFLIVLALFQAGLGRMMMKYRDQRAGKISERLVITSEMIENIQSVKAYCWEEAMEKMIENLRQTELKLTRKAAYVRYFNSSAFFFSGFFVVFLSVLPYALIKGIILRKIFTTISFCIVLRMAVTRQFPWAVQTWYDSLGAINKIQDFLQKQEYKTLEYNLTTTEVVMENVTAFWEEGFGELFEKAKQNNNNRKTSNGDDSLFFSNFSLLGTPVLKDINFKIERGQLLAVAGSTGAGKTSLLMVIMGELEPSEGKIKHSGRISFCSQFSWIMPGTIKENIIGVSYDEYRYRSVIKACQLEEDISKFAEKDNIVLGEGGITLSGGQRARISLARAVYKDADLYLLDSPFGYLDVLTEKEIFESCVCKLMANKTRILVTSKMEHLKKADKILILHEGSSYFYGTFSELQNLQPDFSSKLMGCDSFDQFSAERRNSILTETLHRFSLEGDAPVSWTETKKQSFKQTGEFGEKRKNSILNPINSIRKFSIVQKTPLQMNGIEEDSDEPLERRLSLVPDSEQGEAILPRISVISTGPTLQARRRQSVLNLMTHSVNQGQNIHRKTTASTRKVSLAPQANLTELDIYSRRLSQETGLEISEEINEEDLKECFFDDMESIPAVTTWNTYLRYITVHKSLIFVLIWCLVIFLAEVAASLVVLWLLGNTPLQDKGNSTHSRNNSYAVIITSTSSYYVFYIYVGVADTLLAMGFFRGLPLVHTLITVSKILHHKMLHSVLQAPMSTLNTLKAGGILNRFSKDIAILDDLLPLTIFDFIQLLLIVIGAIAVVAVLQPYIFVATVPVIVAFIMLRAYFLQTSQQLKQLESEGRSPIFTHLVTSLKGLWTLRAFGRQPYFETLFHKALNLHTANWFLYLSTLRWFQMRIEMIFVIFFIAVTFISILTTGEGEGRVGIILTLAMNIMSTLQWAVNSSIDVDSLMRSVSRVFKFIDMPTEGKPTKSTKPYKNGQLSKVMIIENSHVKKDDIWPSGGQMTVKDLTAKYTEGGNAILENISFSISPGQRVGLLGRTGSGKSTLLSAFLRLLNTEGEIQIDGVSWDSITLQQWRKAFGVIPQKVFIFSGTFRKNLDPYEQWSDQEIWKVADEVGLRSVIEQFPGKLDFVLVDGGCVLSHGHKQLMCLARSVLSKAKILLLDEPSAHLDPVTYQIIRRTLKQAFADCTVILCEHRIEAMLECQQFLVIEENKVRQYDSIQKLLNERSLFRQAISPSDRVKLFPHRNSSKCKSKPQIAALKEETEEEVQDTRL

By EC50 is commonly meant the concentration at which the effect is half-maximal. The term Emax denotes the size of the effect at its maximum, as opposed to the concentration needed. Consider `CCN(CC)S(=O)(=O)c1ccc2nnc(NC(C)CC(C)C)n2c1` (stereo not shown) [Example 42], for which the EC50 was under 1000 nM and the Emax is over 80%.
For `CCN(CC)S(=O)(=O)c1ccc2nnc(NCc3ccc(-c4ccccc4)cc3)n2c1` [Example 5], the EC50 is under 1000 nM and the Emax was over 80%.
For `CCN(CC)S(=O)(=O)c1ccc2nnc(NC3CCc4ccccc43)n2c1` (stereo not shown) [Example 30] the same measures were under 1000 nM and over 80%.
In the same order, the values of `O=S(=O)(c1ccccc1)c1ccc2nc(NCc3cccc(C(F)(F)F)c3)nn2c1` [Example 82] are under 1000 nM and over 80%.
In the case of `CCN(CC)S(=O)(=O)c1ccc2nnc(N[C@H](C)c3ccc(F)cc3)n2c1` [Example 41], the EC50 is under 1000 nM and the Emax was over 80%.
On to `CCN(CC)S(=O)(=O)c1ccc2nnc(NCC3CCCCC3)n2c1` [Example 52], for which the EC50 is 1000 to 10000 nM and the Emax was over 80%.
In the same order, the values of `CCN(CC)S(=O)(=O)c1ccc2nnc(NCc3cccc(C)c3)n2c1` [Example 10] are under 1000 nM and over 80%.
`CCN(CC)S(=O)(=O)c1ccc2nnc(NC[C@H]3CCCO3)n2c1` [Example 23]: the EC50 was over 10000 nM and the Emax is over 80%.
For `CCN(CC)S(=O)(=O)c1ccc2nnc(NCc3ccc(F)cc3)n2c1` [Example 49] the same measures were under 1000 nM and over 80%.
In the same order, the values of `CCN(CC)S(=O)(=O)c1ccc2nnc(NCc3ccccc3C)n2c1` [Example 13] are under 1000 nM and 40 to 80%.
In the same order, the values of `CCN(CC)S(=O)(=O)c1ccc2nnc(NCC3CCCO3)n2c1` (stereo not shown) [Example 14] are over 10000 nM and 40 to 80%.
As for `C[C@@H](Nc1nnc2ccc(S(=O)(=O)c3ccc(Cl)cc3)cn12)c1ccccc1` [Example 72], the EC50 is 1000 to 10000 nM and the Emax is over 80%.
In the same order, the values of `CCN(CC)S(=O)(=O)c1ccc2nnc(NCC(C)(C)OC)n2c1` [Example 31] are 1000 to 10000 nM and 40 to 80%.
Turning to `CCN(CC)S(=O)(=O)c1ccc2nnc(NCc3cccnc3)n2c1` [Example 15], the EC50 was over 10000 nM and the Emax lay in the range of 40 to 80%.
In the same order, the values of `O=S(=O)(c1ccccc1)c1ccc2nc(NC[C@H](O)c3ccccc3)nn2c1` [Example 83] are under 1000 nM and over 80%.
In the same order, the values of `CCN(CC)S(=O)(=O)c1ccc2nnc(NCc3ccc(C)c(C)c3)n2c1` [Example 39] are under 1000 nM and over 80%.
For `O=S(=O)(c1ccccc1)c1ccc2nnc(NCC(O)C3CCCCCC3)n2c1` (stereo not shown) [Example 78] the same measures were under 1000 nM and over 80%.
For the compound `CCN(c1cccnc1)S(=O)(=O)c1ccc2nnc(N[C@H](C)c3ccccc3)n2c1` [Example 58, (R)—N-Ethyl-3-((1-phenylethyl)amino)-N-(pyridin-3-yl)-[1,2,4]triazolo[4,3-a]pyridine-6-sulfonamide], the EC50 was under 1000 nM and the Emax was in the range of 40 to 80%.
For the compound `CCN(CC)S(=O)(=O)c1ccc2nnc(NC3Cc4ccccc4C3)n2c1` [Example 4], the EC50 is under 1000 nM and the Emax was over 80%.
Consider `CCN(CC)S(=O)(=O)c1ccc2nnc(NC3CCOc4ccccc43)n2c1` (stereo not shown) [Example 44], for which the EC50 was under 1000 nM and the Emax was over 80%.
As to `CCN(CC)S(=O)(=O)c1ccc2nnc(N(C)Cc3ccccc3)n2c1` [Example 3], the EC50 was under 1000 nM and the Emax is 40 to 80%.
In the same order, the values of `O=C(CNc1nnc2ccc(S(=O)(=O)c3ccccc3)cn12)C1CCCCC1` [Example 79] are 1000 to 10000 nM and over 80%.
Turning to `CCN(CC)S(=O)(=O)c1ccc2nnc(NCc3ccc(OC(F)(F)F)cc3)n2c1` [Example 55], the EC50 was under 1000 nM and the Emax lay in the range of 10 to 40%.
For `O=S(=O)(c1ccccc1)c1ccc2nnc(NCC(O)COc3ccccc3)n2c1` (stereo not shown) [Example 67] the same measures were under 1000 nM and over 80%.
With `CCN(CC)S(=O)(=O)c1ccc2nnc(NCCC(C)(C)C)n2c1` [Example 45], the EC50 is under 1000 nM and the Emax is over 80%.
For `CCC(Nc1nnc2ccc(S(=O)(=O)N(CC)CC)cn12)c1ccccc1` (stereo not shown) [Example 29], the EC50 is under 1000 nM and the Emax was over 80%.
With `CCN(CC)S(=O)(=O)c1ccc2nnc(NCc3ccccc3F)n2c1` [Example 54], the EC50 lay in the range of 1000 to 10000 nM and the Emax is over 80%.
For `O=S(=O)(c1ccccc1)c1ccc2nnc(NCC(O)C3CCCCC3)n2c1` (stereo not shown) [Example 66] the same measures were under 1000 nM and over 80%.
Take `O=S(=O)(c1ccccc1)c1ccc2nnc(NC3Cc4ccccc4C3)n2c1` [Example 64]: the EC50 was under 1000 nM and the Emax was over 80%.
On to `O=S(=O)(c1ccccc1)c1ccc2nc(NCc3ccc(-c4ccccn4)cc3)nn2c1` [Example 94, 6-(phenylsulfonyl)-N-(4-(pyridin-2-yl)benzyl)-[1,2,4]triazolo[1,5-a]pyridin-2-amine], for which the EC50 was under 1000 nM and the Emax is over 80%.
In the same order, the values of `O=S(=O)(c1ccccc1)c1ccc2nnc(NCC(O)c3ccc(F)cc3)n2c1` (stereo not shown) [Example 75] are under 1000 nM and over 80%.
Turning to `O=S(=O)(c1ccc2nc(NCc3ccc4c(c3)OCO4)nn2c1)N1CCCCC1` [Example 101, N-(benzo[d][1,3]dioxol-5-ylmethyl)-6-(piperidin-1-ylsulfonyl)-[1,2,4]-triazolo[1,5-a]pyridin-2-amine], the EC50 was 1000 to 10000 nM and the Emax was over 80%.
With `COc1ccc(S(=O)(=O)Nc2ccc3nnc(NCc4ccccc4)n3c2)cc1` [Example 59, N-(3-(Benzylamino)-[1,2,4]triazolo[4,3-a]pyridine-6-yl)-4-methoxybenzenesulfonamide], the concentration giving a half-maximal response (EC50) is under 1000 nM and the Emax lay in the range of 40 to 80%.
Take `CCN(CC)S(=O)(=O)c1ccc2nnc(NCC3CCOCC3)n2c1` [Example 50]: the EC50 is under 1000 nM and the Emax is over 80%.
With `CCN(CC)S(=O)(=O)c1ccc2nnc(NC(C)c3ccc(C)cc3)n2c1` (stereo not shown) [Example 27], the EC50 was under 1000 nM and the Emax was over 80%.
For `CCN(CC)S(=O)(=O)c1ccc2nnc(N[C@@H](c3ccccc3)C(C)C)n2c1` [Example 51] the same measures were under 1000 nM and over 80%.
Take `O=S(=O)(c1ccccc1)c1ccc2nc(NCC3CC3)nn2c1` [Example 86]: the EC50 was under 1000 nM and the Emax is over 80%.
For `CCN(CC)S(=O)(=O)c1ccc2nnc(NCC(C)(C)O)n2c1` [Example 18] the same measures were 1000 to 10000 nM and 40 to 80%.
With `CCN(CC)S(=O)(=O)c1ccc2nnc(NCc3ccc(C)cc3)n2c1` [Example 9], the EC50 was under 1000 nM and the Emax is over 80%.
Take `CCN(CC)S(=O)(=O)c1ccc2nnc(NC(C)C(C)C)n2c1` (stereo not shown) [Example 43]: the EC50 was under 1000 nM and the Emax was over 80%.
For `CCN(CC)S(=O)(=O)c1ccc2nnc(NCc3ccc(OC)cc3)n2c1` [Example 16] the same measures were under 1000 nM and 40 to 80%.
